Experimental data taken from PMC7939474 (The Journal of Biological Chemistry, 2021).

Molecular target: T1, VcINDY WT (Vibrio cholerae, UniProt Q9KNE0)
T1 construct: gene VC_A0025
Assay: biochemical

## O=C(O)CCC(=O)O [succinate]
  Kd: 4.3 ± 1.5 mM
